≈ marks a conversion by molar mass, not a printed value. Read-outs that look alike come from different tables or passages of the source.
Columns and labels:
Format in all cases: cell-based
[1] = test system: STAPHYLOCOCCUS AUREUS 642A; test: In vitro antibacterial activity, agar dilution MIC; settings: 24 h
M[…] ATCC 9341 = test: In vitro antibacterial activity, agar dilution MIC; settings: Micrococcus luteus, ATCC9341, 24 h
Description: (§1) Representative compounds of the present invention were assayed in vitro for antibacterial activity as follows: Twelve petri dishes containing successive aqueous dilutions of the test compound mixed with 10 ml of sterilized Brain Heart Infusion (BHI) agar (Difco 0418-01-5) were prepared. Each plate was inoculated with 1:100 (or 1:10 for slow-growing strains, such as Micrococcus and Streptococcus) dilutions of up to 32 different microorganisms, using a Steers replicator block. The inoculated plates were incubated at 35°-37° C. for 20 to 24 hours. In addition, a control plate, using BHI agar containing no test compound, was prepared and incubated at the beginning and end of each test.
(§2) An additional plate containing a compound having known susceptibility patterns for the organisms being tested and belonging to the same antibiotic class as the test compound was also prepared and incubated as a further control, as well as to provide test-to-test comparability. Erythromycin A was used for this purpose.
(§3) After incubation, each disk was read. The minimum inhibitory concentration (MIC) was defined as the lowest concentration of drug yielding no growth, a slight haze, or sparsely isolated colonies on the inoculum spot as compared to the growth control. The results of this assay, shown below in Tables 1 and 2, support the conclusion that the compounds of the invention are effective antibacterial agents.

[2] = test system: PSEUDOMONAS AERUGINOSA K799/61; test: In vitro antibacterial activity, agar dilution MIC
Description: as §1, §2, §3

M[…] ATCC 4698 = test: In vitro antibacterial activity, agar dilution MIC; settings: Micrococcus luteus, ATCC4698, 24 h
Description: as §1, §2, §3

EN[…] ATCC 8043 = test: In vitro antibacterial activity, agar dilution MIC; settings: Enterococcus faecium, ATCC8043, 24 h
Description: as §1, §2, §3

ESCHERICHIA COLI JUHL = test: microbe, parasite or virus in culture; settings: E. coli JUHL, BHI agar, 35-37° C., 20 to 24 hours, read-out: MIC
[3] = test system: STAPHYLOCOCCUS AUREUS NCTC 10649; test: In vitro antibacterial activity, agar dilution MIC; settings: NCTC10649, 24 h
PSEUDOMONAS CEPACIA 296I = test: In vitro antibacterial activity, agar dilution MIC; settings: Burkholderia cepacia; P. cepacia 296I; BHI agar, 35-37° C., 20 to 24 hours; read-out: MIC
STAPHYLOCOCCUS AUREUS 45 = test: In vitro antibacterial activity, agar dilution MIC; settings: 24 h
[4] = test system: STREPTOCOCCUS PYOGENES 930 CONST; test: In vitro antibacterial activity, agar dilution MIC; settings: S. pyogenes 930 CONST, BHI agar, 35-37° C., 20 to 24 hours, read-out: MIC
[5] = test system: PSEUDOMONAS AERUGINOSA K799/WT; test: In vitro antibacterial activity, agar dilution MIC; settings: P. aeruginosa K799/WT, BHI agar, 35-37° C., 20 to 24 hours
[6] = test system: STAPHYLOCOCCUS AUREUS ATCC 6538P; test: In vitro antibacterial activity, agar dilution MIC; settings: ATCC6538P, 24 h
ESCHERICHIA COLI H560 = test: In vitro antibacterial activity, agar dilution MIC
[7] = test system: PSEUDOMONAS AERUGINOSA BMH10; test: In vitro antibacterial activity, agar dilution MIC
[8] = test system: STREPTOCOCCUS PYOGENES 2548 INDUC; test: In vitro antibacterial activity, agar dilution MIC; settings: 24 h
[9] = test system: STAPHYLOCOCCUS EPIDERMIDIS 3519; test: microbe, parasite or virus in culture
STR[…] 508 = test: In vitro antibacterial activity, agar dilution MIC; settings: Streptococcus agalactiae, 24 h
Description: as §1, §2
(§4) After incubation, each disk was read. The minimum inhibitory concentration (MIC) was defined as the lowest concentration of drug yielding no growth, a slight haze, or sparsely isolated colonies on the inoculum spot as compared to the growth control.

STR[…] EES61 = test: In vitro antibacterial activity, agar dilution MIC; settings: Streptococcus pyogenes, 24 h
Description: as §1, §2, §4

[10] = test system: STAPHYLOCOCCUS AUREUS CMX 553; test: In vitro antibacterial activity, agar dilution MIC
[11] = test system: STREPTOCOCCUS BOVIS A5169; test: In vitro antibacterial activity, agar dilution MIC; settings: 24 h
[12] = test system: STAPHYLOCOCCUS AUREUS A5177; test: In vitro antibacterial activity, agar dilution MIC
[13] = test system: PSEUDOMONAS AERUGINOSA A5007; test: In vitro antibacterial activity, agar dilution MIC; settings: P. aeruginosa A5007, BHI agar, 35-37° C., 20 to 24 hours
ESCHERICHIA COLI KNK 437 = test: microbe, parasite or virus in culture; settings: E. coli KNK 437, BHI agar, 35-37° C., 20 to 24 hours
ESCHERICHIA COLI SS = test: In vitro antibacterial activity, agar dilution MIC; settings: 24 h
ESCHERICHIA COLI DC-2 = test: In vitro antibacterial activity, agar dilution MIC
[14] = test system: ENTEROBACTER AEROGENES ATCC 13048; test: In vitro antibacterial activity, agar dilution MIC; settings: Klebsiella aerogenes
[15] = test system: STAPHYLOCOCCUS AUREUS 1775; test: In vitro antibacterial activity, agar dilution MIC; settings: S. aureus 1775, BHI agar, 35-37° C., 20 to 24 hours, read-out: MIC
[16] = test system: KLEBSIELLA PNEUMONIAE ATCC 8045; test: In vitro antibacterial activity, agar dilution MIC; settings: ATCC8045, 24 h
[17] = test system: PROVIDENCIA STUARTII CMX 640; test: microbe, parasite or virus in culture; settings: P. stuartii CMX 640, BHI agar, 35-37° C., 20 to 24 hours
[18] = test system: ACINETOBACTER CALCOACETICUS CMX 669; test: In vitro antibacterial activity, agar dilution MIC; settings: A. calcoaceticus CMX 669, BHI agar, 35-37° C., 20 to 24 hours

Compound | MIC (M[…] ATCC 9341) [µg/mL] | MIC (M[…] ATCC 4698) [µg/mL] | MIC (EN[…] ATCC 8043) [µg/mL] | MIC (ESCHERICHIA COLI JUHL) [µg/mL] | MIC [3] [µg/mL] | MIC (PSEUDOMONAS CEPACIA 296I) [µg/mL] | MIC (STAPHYLOCOCCUS AUREUS 45) [µg/mL] | MIC [4] [µg/mL] | MIC [5] [µg/mL] | MIC [6] [µg/mL] | MIC [8] [µg/mL] | MIC (STR[…] 508) [µg/mL] | MIC (STR[…] EES61) [µg/mL] | MIC [13] [µg/mL] | MIC (ESCHERICHIA COLI KNK 437) [µg/mL] | MIC (ESCHERICHIA COLI SS) [µg/mL] | MIC [15] [µg/mL] | MIC [16] [µg/mL] | MIC [17] [µg/mL] | also measured
CC[C@H]1OC(=O)[C@H](C)[C@@H](O[C@H]2C[C@@](C)(OC)[C@@H](O)[C@H](C)O2)[C@H](C)[C@@H](O[C@@H]2O[C@H](C)C[C@H](N(C)C)[C@H]2O)[C@](C)(O)C[C@@H](C)[C@@H](N)[C@H](C)[C@@H](O)[C@@]1(O)CNCc1ccccc1 [Compound 14, (9R)-9-amino-21-benzylamino-9-deoxo-erythromycin A] | 0.78 (≈ 0.928 µM) | 3.1 (≈ 3.69 µM) | 3.1 (≈ 3.69 µM) | 100 (≈ 119 µM) | 3.1 (≈ 3.69 µM) | > 100 | 6.2 (≈ 7.38 µM) | > 100 | > 100 | 3.1 (≈ 3.69 µM) | 3.1 (≈ 3.69 µM) | 0.39 (≈ 0.464 µM) | 0.2 (≈ 0.238 µM) | > 100 | 100 (≈ 119 µM) | 0.78 (≈ 0.928 µM) | > 100 | 50 (≈ 59.5 µM) | > 100 | MIC [1]: 6.2 µg/mL (≈ 7.38 µM); MIC ([2]; P. aeruginosa K799/61, BHI agar, 35-37° C., 20 to 24 hours, read-out: MIC): 25 µg/mL (≈ 29.8 µM); MIC (ESCHERICHIA COLI H560; 24 h): 25 µg/mL (≈ 29.8 µM); MIC ([7]; 24 h): 50 µg/mL (≈ 59.5 µM); MIC ([9]; 24 h): 1.56 µg/mL (≈ 1.86 µM); MIC ([10]; 24 h): 6.2 µg/mL (≈ 7.38 µM); MIC [11]: 0.2 µg/mL (≈ 0.238 µM); MIC ([12]; S. aureus A5177, BHI agar, 35-37° C., 20 to 24 hours, read-out: MIC): > 100 µg/mL; MIC (ESCHERICHIA COLI DC-2; E. coli DC-2, BHI agar, 35-37° C., 20 to 24 hours, read-out: MIC): 100 µg/mL (≈ 119 µM); MIC ([14]; ATCC13048, E. aerogenes ATCC 13048, BHI agar, 35-37° C., 20 to 24 hours, read-out: MIC): > 100 µg/mL
CC[C@H]1OC(=O)[C@H](C)[C@@H](O[C@H]2C[C@@](C)(OC)[C@@H](O)[C@H](C)O2)[C@H](C)[C@@H](O[C@@H]2O[C@H](C)C[C@H](N(C)C)[C@H]2O)[C@](C)(O)C[C@@H](C)[C@@H](N(C)C)[C@H](C)[C@@H](O)[C@@]1(O)CN(C)C [Compound 18, (9R)-9,21-di-(N,N-dimethylamino)-9-deoxoerythromycin A] | 0.2 (≈ 0.248 µM) | 0.78 (≈ 0.968 µM) | 0.39 (≈ 0.484 µM) | 12.5 (≈ 15.5 µM) | 1.56 (≈ 1.94 µM) | > 100 | 1.56 (≈ 1.94 µM) | > 100 | > 100 | 1.56 (≈ 1.94 µM) | 25 (≈ 31 µM) | 0.2 (≈ 0.248 µM) | 0.1 (≈ 0.124 µM) | > 100 | 12.5 (≈ 15.5 µM) | 0.2 (≈ 0.248 µM) | > 100 | 6.2 (≈ 7.69 µM) | > 100 | MIC ([2]; 24 h): 1.56 µg/mL (≈ 1.94 µM); MIC (ESCHERICHIA COLI H560; E. coli H560, BHI agar, 35-37° C., 20 to 24 hours, read-out: MIC): 3.1 µg/mL (≈ 3.85 µM); MIC ([7]; P. aeruginosa BMH10, BHI agar, 35-37° C., 20 to 24 hours, read-out: MIC): 100 µg/mL (≈ 124 µM); MIC ([9]; S. epidermidis 3519, BHI agar, 35-37° C., 20 to 24 hours, read-out: MIC): 3.1 µg/mL (≈ 3.85 µM); MIC ([10]; S. aureus CMX 553, BHI agar, 35-37° C., 20 to 24 hours, read-out: MIC): 3.1 µg/mL (≈ 3.85 µM); MIC ([12]; 24 h): 25 µg/mL (≈ 31 µM); MIC [18]: 12.5 µg/mL (≈ 15.5 µM); MIC (ESCHERICHIA COLI DC-2; 24 h): 6.2 µg/mL (≈ 7.69 µM); MIC ([14]; ATCC13048, 24 h): 25 µg/mL (≈ 31 µM)

Reference: patent publication US5217960A, “Erythromycin derivatives” (priority 1991, dated 1993)
